Paper PMC13224100, “Esterase-Responsive Mitochondria-Targeted Hydropersulfide Donors Mitigate Doxorubicin Cardiotoxicity While Preserving Anticancer Activity” (Angewandte Chemie (International ed. in English), 2025)

Experiments:
H9c2 cells = assay: Intracellular ATP levels (CellTiter-Glo) under DOX; assay type: cell-based; details: donor 25 μM, 4 h pretreatment, DOX 5 μM 24 h
Experimental: (§1) Figure 6. a) Basal sulfane sulfur (SS) levels in H9c2 cardiomyocyte, MDA-MB-468, MCF-7, and HepG2 cell lines as detected by SSP4 fluorescence. b) Representative images and c) basal levels of mitochondrial membrane potential (MMP) in H9c2 and cancer cells (MDA-MB-468, MCF-7, and HepG2). d) Impact of APT-1 (25 μM) or APT-1-TPP (25 μM) on MMP in DOX (5 μM)-treated (d) H9c2 and e) HepG2 cells. Impact of APT-1 (25 μM) and APT-1-TPP (25 μM) on ATP levels in DOX (5 μM)-treated f) H9c2 and g) HepG2 cells. Results are expressed as mean ± SEM, n = 3–6; *P < 0.05, **P < 0.01, ***P < 0.001, ****P < 0.0001. Significances in (a) and (c) are presented with respect to H9c2 cells.
(§2) We then examined how RSSH donors influence MMP during DOX exposure. As expected, DOX alone induced mitochondrial depolarization in H9c2 cells, reducing MMP to ca. 50% of control (Figure 6d). […] To complement these observations, we quantified intracellular ATP levels as a functional readout of mitochondrial activity. […]
(§3) Briefly, H9c2 cells and HepG2 cells were seeded in 96-well white-bottom plate (Alkali Scientific, SKU:TPW9096, TC-treated) at 5000 cells/well. After treatment (Ctrl, 5 μM DOX alone, 4 h pretreatment of 25 μM APT-1 + 24 h cotreatment with 5 μM DOX, and 4 h pretreatment of 25 μM APT-1-TPP + 24 h cotreatment with 5 μM DOX, in clear DMEM medium with 10% FBS), cells were equilibrated at rt for 30 min before CellTiter-Glo® reagent was added to each well. Plates were then placed on an orbital shaker for 2 min and incubated at rt for another 20 min.
(§4) Chemiluminescence was measured using Tecan plate reader (SPARK Part No. 30124664 Version 1.7, serial No. 1909010319). Cellular AT P concentration was calculated based on the AT P calibration curve and normalized to cell count. […] Each treatment condition was performed in 6 technical replicates per biological replicate, and the experiment was independently repeated three times (n = 3 biological replicates).
(§5) Data are presented as mean ± SEM. […]

HepG2 cells = assay: Intracellular ATP levels (CellTiter-Glo) under DOX; assay type: cell-based; details: donor 25 μM, 4 h pretreatment, DOX 5 μM 24 h
Experimental: as §1, §2, §3, §4, §5

CC(=O)NC(C(=O)N(C)CCC[P+](c1ccccc1)(c1ccccc1)c1ccccc1)C(C)(C)SSC(=O)N(C)CCOC(C)=O (stereo not shown) [APT-1-TPP]
effect on DOX-reduced ATP levels (H9c2 cells): restored | effect on DOX-induced ATP depletion (HepG2 cells): neither donor rescued DOX-induced ATP depletion

COC(=O)C(NC(C)=O)C(C)(C)SSC(=O)N(C)CCOC(C)=O (stereo not shown) [APT-1]
effect on DOX-reduced ATP levels (H9c2 cells): restored | effect on DOX-induced ATP depletion (HepG2 cells): neither donor rescued DOX-induced ATP depletion
